{"source": "patent US9375470B2", "about": "“Compositions with reduced dimer formation” (Circassia Limited, priority 2008, dated 2016)", "origin": "cited, not measured here", "key": {"[1]": {"details": "reported values, Tg for the maximally freeze concentrated state"}}, "note": "Read-outs that look alike come from different tables or passages of the source."}
{"smiles": "OC[C@H]1O[C@@](CO)(O[C@H]2O[C@H](CO)[C@@H](O)[C@H](O)[C@H]2O)[C@@H](O[C@H]2O[C@H](CO)[C@@H](O)[C@H](O)[C@H]2O)[C@@H]1O", "note": "[Melezitose]", "values": [{"measurement": "Tg", "setting": "reported values", "result": ">100", "unit": "°C"}]}
{"smiles": "OC[C@H]1O[C@@](CO)(O[C@H]2O[C@H](CO)[C@@H](O)[C@H](O)[C@H]2O)[C@@H](O)[C@@H]1O", "note": "[Sucrose]", "values": [{"measurement": "Tg′", "result": "−32", "unit": "°C"}, {"measurement": "Tg", "setting": "reported values", "result": "43-65 °C"}, {"measurement": "Tg′", "setting": "[1]", "result": "Approx. −46"}]}
{"smiles": "OC[C@H]1O[C@H](OC[C@H]2O[C@H](OC[C@H]3O[C@H](O[C@]4(CO)O[C@H](CO)[C@@H](O)[C@@H]4O)[C@H](O)[C@@H](O)[C@@H]3O)[C@H](O)[C@@H](O)[C@H]2O)[C@H](O)[C@@H](O)[C@H]1O", "note": "[Stachyose]", "values": [{"measurement": "Tg", "setting": "reported values", "result": "81-123 °C"}]}
{"smiles": "OC[C@@H](O)[C@@H](O)[C@H](O)[C@H](O)CO", "note": "[mannitol]", "values": [{"measurement": "Teut (eutectic temperature)", "result": "−3", "unit": "°C"}]}
{"smiles": "OC[C@H]1O[C@H](O[C@H]2O[C@H](CO)[C@@H](O)[C@H](O)[C@H]2O)[C@H](O)[C@@H](O)[C@@H]1O", "note": "[Trehalose]", "values": [{"measurement": "Tg", "setting": "reported values", "result": "63-115 °C"}, {"measurement": "Tg′", "setting": "[1]", "result": "Approx. −27"}]}
{"smiles": "OC[C@H]1O[C@H](OC[C@H]2O[C@H](O[C@]3(CO)O[C@H](CO)[C@@H](O)[C@@H]3O)[C@H](O)[C@@H](O)[C@@H]2O)[C@H](O)[C@@H](O)[C@H]1O", "note": "[Raffinose]", "values": [{"measurement": "Tg", "setting": "reported values", "result": "70-106 °C"}, {"measurement": "Tg′", "setting": "[1]", "result": "Approx. −36"}]}
